The target of data set [1] is T1, phosphorylated VEGF-R2Δ50 (Homo sapiens, UniProt P35968, DEL940-989/E990V).
T1 construct: VEGF-R2Δ50 contains residues 806-939 and 990-1171; made in house; host or cells: baculovirus/insect cells
The data set is described as follows: VEGF-R2 ELISA assay (phosphogastrin formation). The data set is classed as biochemical. The following applies: @ 10 μM (ELISA); read-out: FLVK-P percent inhibition (ELISA). An excerpt:
A construct (VEGF-R2Δ50) of the cytosolic domain of human vascular endothelial growth factor receptor 2 (VEGF-R2) lacking the 50 central residues of the 68 residues of the kinase insert domain was expressed in a baculovirus/insect cell system. Of the 1356 residues of full-length VEGF-R2, VEGF-R2Δ50 contains residues 806-939 and 990-1171, and also one point mutation (E990V) within the kinase insert domain relative to wild-type VEGF-R2. See commonly assigned, co-pending U.S. patent application Ser. No. 09/390,326, filed Sep. 7, 1999, incorporated by reference herein, for discussion of VEGF constructs and expression systems. Autophosphorylation of the purified construct was performed by incubation of the enzyme at a concentration of 4 μM in the presence of 3 mM ATP and 40 mM MgCl2 in 100 mM Hepes, pH 7.5, containing 5% glycerol and 5 mM DTT, at 4° C. for 2 h. […]
Formation of phosphogastrin was monitored using biotinylated gastrin peptide (1-17) as substrate. […] The activity of horseradish peroxidase was monitored using 2,2′-azino-di-[3-ethylbenzathiazoline sulfonate(6)] diammonium salt (ABTS). […] The horseradish peroxidase reaction was quenched by addition of acid (H2SO4), followed by absorbance reading at 405 nm. Ki values were determined by measuring enzyme activity in the presence of varying concentrations of test compounds. The data were analyzed using Enzyme Kinetic and Kaleidagraph software.

Data set [2] deals with T2, phosphorylated VEGF-R2Δ50 (FLVK-P) (Homo sapiens, UniProt P35968, DEL940-989/E990V).
T2 construct: VEGF-R2Δ50 contains residues 806-939 and 990-1171; made in house; host or cells: baculovirus/insect cells
T2 sequence (P35968 with tags, fused parts or gaps DEL940-989/E990V limits assumed): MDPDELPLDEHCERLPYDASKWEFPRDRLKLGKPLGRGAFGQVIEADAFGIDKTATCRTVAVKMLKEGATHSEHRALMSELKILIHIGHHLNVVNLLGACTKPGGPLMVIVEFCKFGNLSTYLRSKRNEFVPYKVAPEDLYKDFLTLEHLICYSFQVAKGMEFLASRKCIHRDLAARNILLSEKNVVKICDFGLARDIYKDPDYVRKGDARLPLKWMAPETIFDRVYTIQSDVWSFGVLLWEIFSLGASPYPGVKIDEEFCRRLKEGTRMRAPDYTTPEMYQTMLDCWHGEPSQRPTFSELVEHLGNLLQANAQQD
The data set is described as follows: VEGF-R2 coupled spectrophotometric assay, phosphorylated construct (FLVK-P). The data set is classed as biochemical. The gist of the method: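 Continuous PK/LDH-coupled spectrophotometric read (NADH loss at 340 nm) with 5–40 nM enzyme in 200 mM Hepes pH 7.5. Phosphorylated construct run at 1 mM ATP, 25 mM MgCl2, 5.1 mM poly(E4Y1); unphosphorylated at 3 mM ATP, 60 mM MgCl2 plus 2 mM MnCl2, 20 mM poly(E4Y1). Ki values derived from varied inhibitor concentrations.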

In data set [3] the target is T3, unphosphorylated VEGF-R2Δ50 (FLVK) (Homo sapiens, UniProt P35968, DEL940-989/E990V).
T3 construct: VEGF-R2Δ50 contains residues 806-939 and 990-1171; made in house; host or cells: baculovirus/insect cells
T3 sequence (P35968 with tags, fused parts or gaps DEL940-989/E990V limits assumed): as above
Description: VEGF-R2 coupled spectrophotometric assay, unphosphorylated construct (FLVK).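 Also: Baculovirus-expressed cytosolic kinase domain, ADP formation linked via pyruvate kinase and lactate dehydrogenase to NADH oxidation, read as falling absorbance at 340 nm.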 The data set is classed as biochemical.

Another data set deals with CDK2/Cyclin A complex (Homo sapiens, UniProt P24941). The data set is described as follows: CDK2/Cyclin A assay ([32P]ATP incorporation into Rb fragment). The data set is classed as biochemical. To be noted: μM. How it is done:
CDK2 was purified using published methodology (Rosenblatt et al., J. Mol. Biol., 230, 1317-1319 (1993)) from insect cells that had been infected with a baculovirus expression vector. Cyclin A was purified from E. coli cells expressing full-length recombinant cyclin A, and a truncated cyclin A construct was generated by limited proteolysis and purified as described previously (Jeffrey et al., Nature, 376, 313-320 (1995)).
Cyclin-dependent kinase activity was measured by quantifying the enzyme-catalyzed, time-dependent incorporation of radioactive phosphate from [^32P]ATP into a recombinant fragment of the retinoblastoma protein. Unless noted otherwise, assays were performed in 96-well plates in a total volume of 50 μL, in the presence of 10 mM HEPES (N-[2-hydroxyethyl]piperazine-N′-[2-ethanesulfonic acid]) (pH 7.4), 10 mM MgCl2, 25 μM adenosine triphosphate (ATP), 1 mg/mL ovalbumin, 5 μg/mL leupeptin, 1 mM dithiothreitol, 10 mM β-glycerophosphate, 0.1 mM sodium vanadate, 1 mM sodium fluoride, 2.5 mM ethylene glycol-bis(β-aminoethyl ether)-N,N,N′N′-tetraacetic acid (EGTA), 2% (v/v) dimethylsulfoxide, and 0.03-0.2 μCi [^32P]ATP. The substrate (0.3-0.5 μg) was purified recombinant retinoblastoma protein fragment (Rb) (residues 386-928 of the native retinoblastoma protein; 62.3 kDa, containing the majority of the phosphorylation sites found in the native 106-kDa protein, as well as a tag of six histidine residues for ease of purification). Reactions were initiated with CDK2 (150 nM CDK2/Cyclin A complex) or CDK4 (50 nM CDK4/Cyclin D3 complex), incubated at 30° C., and terminated after 20 minutes by the addition of ethylenediaminetetraacetic acid (EDTA) to 250 mM. The phosphorylated substrate was then captured on a nitrocellulose membrane using a 96-well filtration manifold, and unincorporated radioactivity was removed by repeated washing with 0.85% phosphoric acid. Radioactivity was quantified by exposing the dried nitrocellulose membranes to a phosphorimager. Apparent Ki values were measured by assaying enzyme activity in the presence of different compound concentrations and subtracting the background radioactivity measured in the absence of enzyme. The kinetic parameters (kcat, Km for ATP) were measured for each enzyme under the usual assay conditions by determining the dependence of initial rates on ATP concentration. The data were fit to an equation for competitive inhibition using Kaleidagraph (Synergy Software), or were fit to an equation for competitive tight-binding inhibition using the software KineTic (BioKin, Ltd.). Measured Ki values for known inhibitors against CDK4 and CDK2 agreed with published IC50 values. […]

The next data set has as its target T4, CDK4/Cyclin D3 complex (Homo sapiens, UniProt P11802).
T4 construct: made in house; host or cells: insect cells co-infected with baculovirus vectors
Description: CDK4/Cyclin D assay ([32P]ATP incorporation into Rb fragment). The data set is classed as biochemical. The following applies: μM. How it is done:
A complex of human CDK4 and cyclin D3, or a complex of cyclin D1 and a fusion protein of human CDK4 and glutathione-S-transferase (GST-CDK4), was purified using traditional biochemical chromatographic techniques from insect cells that had been co-infected with the corresponding baculovirus expression vectors.
Cyclin-dependent kinase activity was measured by quantifying the enzyme-catalyzed, time-dependent incorporation of radioactive phosphate from [^32P]ATP into a recombinant fragment of the retinoblastoma protein. Unless noted otherwise, assays were performed in 96-well plates in a total volume of 50 μL, in the presence of 10 mM HEPES (N-[2-hydroxyethyl]piperazine-N′-[2-ethanesulfonic acid]) (pH 7.4), 10 mM MgCl2, 25 μM adenosine triphosphate (ATP), 1 mg/mL ovalbumin, 5 μg/mL leupeptin, 1 mM dithiothreitol, 10 mM β-glycerophosphate, 0.1 mM sodium vanadate, 1 mM sodium fluoride, 2.5 mM ethylene glycol-bis(β-aminoethyl ether)-N,N,N′N′-tetraacetic acid (EGTA), 2% (v/v) dimethylsulfoxide, and 0.03-0.2 μCi [^32P]ATP. The substrate (0.3-0.5 μg) was purified recombinant retinoblastoma protein fragment (Rb) (residues 386-928 of the native retinoblastoma protein; 62.3 kDa, containing the majority of the phosphorylation sites found in the native 106-kDa protein, as well as a tag of six histidine residues for ease of purification). Reactions were initiated with CDK2 (150 nM CDK2/Cyclin A complex) or CDK4 (50 nM CDK4/Cyclin D3 complex), incubated at 30° C., and terminated after 20 minutes by the addition of ethylenediaminetetraacetic acid (EDTA) to 250 mM. The phosphorylated substrate was then captured on a nitrocellulose membrane using a 96-well filtration manifold, and unincorporated radioactivity was removed by repeated washing with 0.85% phosphoric acid. Radioactivity was quantified by exposing the dried nitrocellulose membranes to a phosphorimager. Apparent Ki values were measured by assaying enzyme activity in the presence of different compound concentrations and subtracting the background radioactivity measured in the absence of enzyme. The kinetic parameters (kcat, Km for ATP) were measured for each enzyme under the usual assay conditions by determining the dependence of initial rates on ATP concentration. The data were fit to an equation for competitive inhibition using Kaleidagraph (Synergy Software), or were fit to an equation for competitive tight-binding inhibition using the software KineTic (BioKin, Ltd.). Measured Ki values for known inhibitors against CDK4 and CDK2 agreed with published IC50 values. The specific activity of CDK4 was the same whether complexed to full-length cyclin D3 or the truncated Cyclin D3 construct; both complexes also yielded very similar Ki values for selected inhibitors.

For data set [4], the system named is human umbilical vein endothelial cells (HUVEC). The data set is described as follows: HUVEC proliferation assay (VEGF-stimulated, MTT). The data set is classed as cell-based. The following applies: Homo sapiens, HUVEC; read-out: HUVEC IC50. The gist of the method:
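Proliferation measured by MTT reduction (4 h exposure, absorbance at 595) 72 hours after VEGF stimulation (final 6 ng/ml). Compound added to 24 h-starved HUVEC in F12K with 1% FBS and 0.1% final DMSO, one hour before the growth factor.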

The test system of data set [5] is lung cancer cells (line MV522). Description: Cancer cell proliferation (MV522) assay (MTT). The data set is classed as cell-based. To be noted: MV522. In outline: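 Proliferation was read by MTT reduction 72 h after compound addition, in a 4-day protocol with no starvation step. Two thousand MV522 cells were seeded in RPMI1640 with 10% FBS and 2 mM glutamine and given 1 day to attach before dosing.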

Each structure is given as a SMILES string. Where only a bound is given, the exact number is not on record here.

T4 sequence (P11802 whole entry): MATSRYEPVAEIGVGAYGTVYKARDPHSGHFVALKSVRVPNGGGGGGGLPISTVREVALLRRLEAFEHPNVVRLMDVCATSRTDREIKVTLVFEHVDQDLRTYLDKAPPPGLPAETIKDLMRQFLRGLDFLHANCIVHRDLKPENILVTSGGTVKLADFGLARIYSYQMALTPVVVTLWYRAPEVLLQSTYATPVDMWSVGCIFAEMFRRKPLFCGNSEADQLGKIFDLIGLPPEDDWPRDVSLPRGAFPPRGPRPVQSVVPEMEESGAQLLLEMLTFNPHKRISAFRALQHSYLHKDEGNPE
T4 sequence (P30281 whole entry partner): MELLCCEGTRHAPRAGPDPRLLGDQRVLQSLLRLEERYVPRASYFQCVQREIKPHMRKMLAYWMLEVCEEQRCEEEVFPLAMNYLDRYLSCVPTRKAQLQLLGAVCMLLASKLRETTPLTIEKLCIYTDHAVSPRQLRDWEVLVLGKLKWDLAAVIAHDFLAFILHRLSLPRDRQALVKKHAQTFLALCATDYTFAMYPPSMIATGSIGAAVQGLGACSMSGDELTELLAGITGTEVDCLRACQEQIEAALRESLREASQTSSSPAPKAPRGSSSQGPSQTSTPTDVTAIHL
T1 sequence (P35968 with tags, fused parts or gaps DEL940-989/E990V limits assumed): as the sequence (P35968 with tags, fused parts or gaps DEL940-989/E990V limits assumed) above

`O=C(NCc1ccc2c(c1)OCO2)c1cccc(CSc2ncnc3[nH]ncc23)c1` [Example B-6, N-(1,3-Benzodioxyl-5-ylmethyl)-3-[(1H-pyrazolo[3,4-d]pyrimidin-4-yl)sulfanylmethyl]benzamide]: in data set [1], the inhibition at 10 µM turned out to be 62%.

In the case of `COc1cc(NC(=O)c2cccc(SCc3cc(Nc4ccccc4)n[nH]3)c2)cc(OC)c1OC` [Example E-2], the melting point is 67 to 69 °C. The affinity in data set [2] corresponds to a Ki of 4.79 nM. Moreover, in data set [3], the affinity corresponds to a Ki of 0.95 nM. In addition, the inhibitory constant (Ki) at CDK2/Cyclin A complex was over 100 µM. At CDK4/Cyclin D3 complex, the Ki was over 100 µM. For the same compound, the IC50 in data set [4] is 55 nM. For the same compound, in data set [5], the IC50 was over 10 µM.

The values above are taken from patent publication US6635641B2 (Agouron Pharmaceuticals, Inc., priority 2000, dated 2003).
